For 18 compounds, inhibition results are on record in patent publication US8580965B2, “Substituted sulfonamide compounds” (Gruenenthal GmbH, priority 2006, dated 2013).

Each structure is given as a SMILES string. Structures can show the parent of a compound that is named as a salt.

The target of experiment [1] is T1, human B1R receptor (bradykinin 1 receptor) (Homo sapiens, UniProt P46663).
T1 construct: host or cells: CHO K1 cells (hB1R cells)
T1 sequence (P46663 1-353): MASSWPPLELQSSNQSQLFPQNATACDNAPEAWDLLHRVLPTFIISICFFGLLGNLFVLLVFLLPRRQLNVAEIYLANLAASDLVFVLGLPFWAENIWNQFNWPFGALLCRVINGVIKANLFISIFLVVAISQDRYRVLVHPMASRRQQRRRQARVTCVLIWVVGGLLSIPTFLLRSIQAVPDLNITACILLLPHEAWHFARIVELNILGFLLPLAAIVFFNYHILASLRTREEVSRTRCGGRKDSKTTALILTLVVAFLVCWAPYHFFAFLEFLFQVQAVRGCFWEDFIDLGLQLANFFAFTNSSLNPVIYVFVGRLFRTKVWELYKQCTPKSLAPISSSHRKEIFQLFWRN
As to the kind of experiment: FLIPR Ca2+ assay (Fluo-4) on CHO K1 cells stably transfected with the human B1R gene; % activation and % inhibition at 10 μM. Format: cell-based. Conditions: CHO-K1, test substance 10 μM; CHO K1 hB1R cells; Ca2+ inflow after 0.5 nM Lys-Des-Arg9-bradykinin; read-out: B1R antagonism, human [10 μM] % inhibition. A digest of the protocol:
(§1)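 Fluo-4 Ca2+ flux on FLIPR in stable hB1R or rB1R CHO K1 lines, two additions. Agonism: 10 µM compound versus 0.5 nM Lys-Des-Arg9-BK (human) or 100 nM Des-Arg9-BK (rat); antagonism: same agonists applied 10 min later, suppression expressed against maximum achievable inhibition.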

Experiment [2] has as its target T2, B1R receptor of the rat (bradykinin 1 receptor) (Rattus norvegicus, UniProt P97583).
T2 construct: host or cells: CHO K1 cells (rB1R cells)
T2 sequence (P97583 1-337): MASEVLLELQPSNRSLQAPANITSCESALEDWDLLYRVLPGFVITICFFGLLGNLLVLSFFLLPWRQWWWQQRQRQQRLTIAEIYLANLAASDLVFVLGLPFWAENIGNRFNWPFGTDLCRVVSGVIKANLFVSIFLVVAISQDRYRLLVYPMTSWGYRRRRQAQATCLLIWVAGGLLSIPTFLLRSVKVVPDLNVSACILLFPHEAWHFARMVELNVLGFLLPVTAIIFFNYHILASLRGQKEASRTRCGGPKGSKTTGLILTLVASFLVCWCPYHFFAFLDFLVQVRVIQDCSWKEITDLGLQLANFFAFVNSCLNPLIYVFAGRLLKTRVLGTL
Kind of experiment: FLIPR Ca2+ assay (Fluo-4) on CHO K1 cells stably transfected with the B1R gene of the rat; % activation and % inhibition at 10 μM. The format is cell-based. The conditions noted are these: CHO-K1, test substance 10 μM; CHO K1 rB1R cells; Ca2+ inflow after 100 nM Des-Arg9-bradykinin; read-out: B1R antagonism, rat [10 μM] % inhibition. An outline of the steps:
as §1

As for `COc1ccc(S(=O)(=O)N2Cc3ccccc3CC2COCC(=O)N2CCC(O)(Cc3ccccc3)CC2)cc1` (stereo not drawn) [Example 23, 1-(4-benzyl-4-hydroxy-piperidin-1-yl)-2-[2-(4-methoxy-phenylsulfonyl)-1,2,3,4-tetrahydro-isoquinolin-3-ylmethoxy]-ethanone], the figures for the inhibition at 10 µM in experiment [1] and in experiment [2] were 15.7% and 56.9%, respectively.
In the same order, the values of `COc1cc(C)c(S(=O)(=O)N(C)CCOCC(=O)N2CCC(O)(c3cccc(C(F)(F)F)c3)CC2)c(C)c1` [Example 132, N-(2-(2-(4-hydroxy-4-(3-(trifluoromethyl)phenyl)piperidin-1-yl)-2-oxoethoxy)ethyl)-4-methoxy-N,2,6-trimethylphenylsulfonamide] are 101% and 99.1%.
In the same order, the values of `COc1cc(C)c(S(=O)(=O)N2CCC(COCC(=O)N3CCC(O)(c4ccc(Cl)c(C(F)(F)F)c4)CC3)C2)c(C)c1` (stereo not drawn) [Example 228, 1-(4-(4-chloro-3-(trifluoromethyl)phenyl)-4-hydroxypiperidin-1-yl)-2-((1-(4-methoxy-2,6-dimethylphenylsulfonyl)pyrrolidin-3-yl)methoxy)ethanone] are 95% and 101%.
In the same order, the values of `COc1cc(C)c(S(=O)(=O)N(CCOCC(=O)N2CCC(O)(c3cccs3)CC2)CC(C)C)c(C)c1C` [Example 269, N-(2-(2-(4-hydroxy-4-(thiophen-2-yl)piperidin-1-yl)-2-oxoethoxy)ethyl)-N-isobutyl-4-methoxy-2,3,6-trimethylphenylsulfonamide] are 98.4% and 99.1%.
As to `O=C(COCC1CCCN1S(=O)(=O)c1c(Cl)cccc1Cl)N1CCC(O)(c2ccccc2)CC1` (stereo not drawn) [Example 220, 2-((1-(2,6-dichlorophenylsulfonyl)pyrrolidin-2-yl)methoxy)-1-(4-hydroxy-4-phenylpiperidin-1-yl)ethanone], the results for the inhibition at 10 µM in experiment [1] and in experiment [2] were 99% and 102%, respectively.
In the same order, the values of `CN(CCOCC(=O)N1CCC(O)(c2ccc(Cl)cc2)CC1)S(=O)(=O)c1cc(Cl)sc1Cl` [Example 260, 2,5-dichloro-N-(2-(2-(4-(4-chlorophenyl)-4-hydroxypiperidin-1-yl)-2-oxoethoxy)ethyl)-N-methylthiophene-3-sulfonamide] are 73.1% and 91.1%.
In the same order, the values of `O=C(COC1CCCCC1N(Cc1ccccc1)S(=O)(=O)c1ccc(Cl)c(Cl)c1)N1CCC(O)(c2ccc(Cl)cc2)CC1` (stereo not drawn) [Example 83, N-benzyl-3,4-dichloro-N-(2-(2-(4-(4-chlorophenyl)-4-hydroxypiperidin-1-yl)-2-oxoethoxy)cyclohexyl)phenylsulfonamide] are 11.3% and -12.6%.
In the same order, the values of `COc1cc(C)c(S(=O)(=O)N(C)CCOCC(=O)N2CCC(O)(Cc3cccnc3)CC2)c(C)c1` [Example 279, N-(2-(2-(4-hydroxy-4-(pyridin-3-ylmethyl)piperidin-1-yl)-2-oxoethoxy)ethyl)-4-methoxy-N,2,6-trimethylphenylsulfonamide hydrochloride] are 103% and 105%.
For the compound `O=C(COCC1CCCCN1S(=O)(=O)c1c(Cl)cccc1Cl)N1CCC(O)(c2ccc(Cl)c(C(F)(F)F)c2)CC1` (stereo not drawn) [Example 236, 1-(4-(4-chloro-3-(trifluoromethyl)phenyl)-4-hydroxypiperidin-1-yl)-2-((1-(2,6-dichlorophenylsulfonyl)piperidin-2-yl)methoxy)ethanone], the inhibition – broadly, the relative decrease from the control value, in per cent – at 10 µM in experiment [1] was 102%; in experiment [2], 99.9%.
In the same order, the values of `CN(CCOCC(=O)N1CCC(O)(c2ccc(Cl)c(C(F)(F)F)c2)CC1)S(=O)(=O)c1cc(Cl)sc1Cl` [Example 263, 2,5-dichloro-N-(2-(2-(4-(4-chloro-3-(trifluoromethyl)phenyl)-4-hydroxypiperidin-1-yl)-2-oxoethoxy)ethyl)-N-methylthiophene-3-sulfonamide] are 42.9% and 70.5%.
For the compound `Cc1cc(C)c(S(=O)(=O)N2Cc3ccccc3CC2COCC(=O)N2CCC(O)(c3ccc(Cl)cc3)CC2)c(C)c1` (stereo not drawn) [Example 200, 1-(4-(4-chlorophenyl)-4-hydroxypiperidin-1-yl)-2-((2-(mesitylsulfonyl)-1,2,3,4-tetrahydroisoquinolin-3-yl)methoxy)ethanone], the inhibition at 10 µM in experiment [1] was 29.8%; in experiment [2], 98.1%.
In the case of `O=C(COCC1CCCCN1S(=O)(=O)c1ccccc1C(F)(F)F)N1CCC(O)(c2cccc(C(F)(F)F)c2)CC1` (stereo not drawn) [Example 177, 1-(4-hydroxy-4-(3-(trifluoromethyl)phenyl)piperidin-1-yl)-2-((1-(2-(trifluoromethyl)phenylsulfonyl)piperidin-2-yl)methoxy)ethanone], the results for the inhibition at 10 µM in experiment [1] and in experiment [2] were 101% and 104%, respectively.
In the same order, the values of `Cc1cc(S(=O)(=O)N2CCCCC2COCC(=O)N2CCC(O)(Cc3ccccc3)CC2)c(C)cc1Cl` (stereo not drawn) [Example 159, 1-(4-benzyl-4-hydroxypiperidin-1-yl)-2-((1-(4-chloro-2,5-dimethylphenylsulfonyl)piperidin-2-yl)methoxy)ethanone] are 38.5% and 97%.
In the same order, the values of `Cc1cc(S(=O)(=O)N(C)CCOCC(=O)N2CCC(O)(c3ccc(Cl)c(C(F)(F)F)c3)CC2)c(C)s1` [Example 259, N-(2-(2-(4-(4-chloro-3-(trifluoromethyl)phenyl)-4-hydroxypiperidin-1-yl)-2-oxoethoxy)ethyl)-N,2,5-trimethylthiophene-3-sulfonamide] are 94% and 93.3%.
In the case of `COc1cc(C)c(S(=O)(=O)N(CCOCC(=O)N2CCC(O)(Cc3ccccc3)CC2)CC2CC2)c(C)c1C` [Example 207, N-(2-(2-(4-benzyl-4-hydroxypiperidin-1-yl)-2-oxoethoxy)ethyl)-N-(cyclopropylmethyl)-4-methoxy-2,3,6-trimethylphenylsulfonamide], the results for the inhibition at 10 µM in experiment [1] and in experiment [2] were 94.2% and 99.2%, respectively.
In the same order, the values of `Cc1cc(S(=O)(=O)N2CCCCC2CCC(=O)N2CCC(O)(c3ccccn3)CC2)c(C)cc1Cl` (stereo not drawn) [Example 119, 3-(1-(4-chloro-2,5-dimethylphenylsulfonyl)piperidin-2-yl)-1-(4-hydroxy-4-(pyridin-2-yl)piperidin-1-yl)propan-1-one] are 82.6% and 22.4%.
In the same order, the values of `O=C(COCC1CCCN1S(=O)(=O)c1c(Cl)cc(C(F)(F)F)cc1Cl)N1CCC(O)(c2ccc(Cl)cc2)CC1` (stereo not drawn) [Example 166, 1-(4-(4-chlorophenyl)-4-hydroxypiperidin-1-yl)-2-((1-(2,6-dichloro-4-(trifluoromethyl)phenylsulfonyl)pyrrolidin-2-yl)methoxy)ethanone] are 58.5% and 104%.
For the compound `COc1cc(C)c(S(=O)(=O)N(C)CCCCC(=O)N2CCC(O)(c3cccnc3)CC2)c(C)c1` [Example 121, N-(5-(4-hydroxy-4-(pyridin-3-yl)piperidin-1-yl)-5-oxopentyl)-4-methoxy-N,2,6-trimethylphenylsulfonamide], the inhibition at 10 µM was 100% in experiment [1] and 57.1% in experiment [2].
